Source: patent publication US8575164B2, “Combination cancer therapy” (OSI Pharmaceuticals, LLC, priority 2005, dated 2013)
Read-outs that look alike come from different tables or passages of the source.

Columns and labels:
[1] = test system: colorectal cancer; conditions: cited from earlier work
[2] = test system: H292 human non-small cell lung carcinoma cell line; conditions: H292 cells in culture; single agent or combination
Method: To monitor cell apoptosis, DNA fragmentation was measured by using a commercially available kit from Roche. Cells were plated in 90 ul of 10% serum-containing growth media at a density of 5000 cells/well in a 96-well culture plate. On day 2, cells were treated with 10 ul of 10× concentrations of drugs or DMSO alone for a final well volume of 100 ul. After 48 h treatment with the drugs, the cells were assayed for DNA fragmentation according to the manufacture instructions. Results were calculated as fold of induction of DNA fragmentation of the DMSO controlled cells.

[3] = test system: H292 human non-small cell lung carcinoma cell line; conditions: H292 cells in culture; single agent or combination; remark: listed apart in the source
Method: The basis of the assay is a luminescent quantitation of ATP present in a cell culture plate well. In essence, the greater the number of viable cells in the well, the greater the level of ATP present. […] Results were calculated as a fraction of the DMSO controlled cells.

## O=C1[O][Pt]2([NH][C@@H]3CCCC[C@H]3[NH]2)[O]C1=O [oxaliplatin]
[1]; combined with 5-FU and leucovorin, first-line treatment for colorectal cancer
  response rates: 25-40%

## O=c1[nH]cc(F)c(=O)[nH]1 [5-fluorouracil]
[1]; single-agent treatment for advanced colorectal cancer
  response rates: about 10%

## C#Cc1cccc(Nc2ncnc3cc(OCCOC)c(OCCOC)cc23)c1 [TARCEVA™, [6,7-bis(2-methoxyethoxy)-4-quinazolin-4-yl]-(3-ethynylphenyl)amine]
[2]
  induction of apoptosis: induced apoptosis
[3]
  inhibition of cell proliferation: inhibited cell proliferation
